Legend:
Pyricularia oryzae = format: in vivo; settings: rice seedlings, direct therapeutic foliar spray, 600 ppm, 4-5 days
Phytophthora infestans = format: in vivo; settings: tomato, direct protectant foliar spray
Venturia inaequalis = experiment: Activity against apple scab in-vitro (VII); format: cell-based; settings: 10 ppm, 10 days, 20° C., mycelial growth
Summary of the method: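 Compound in acetone was tested at 10 ppm final in half-strength Potato Dextrose Broth inoculated with V. inaequalis mycelial fragments and spores at 5×10^4 propagules/ml. After 10 days at 20° C, mycelial growth was rated against untreated or diluent controls.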

Plasmopara viticola = experiment: Antisporulant activity against vine downy mildew (PVA); format: in vivo; settings: vine leaves, antisporulant foliar spray, 600 ppm, 750 l/ha
Summary of the method: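 Cabernet Sauvignon vines (~8 cm) inoculated on lower leaf surfaces with 5×10^4 zoosporangia/ml, held 24 h at 21° C high humidity then 24 h glasshouse. Infected leaves sprayed underside with 600 ppm compound in 1:1 water/acetone, 0.04% Tween 20, 750 l/ha; 96 h glasshouse, 24 h humidity. Sporulating leaf area rated versus control.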

[1] = system: Erysiphe graminis f.sp. hordei; experiment: Direct protectant activity against barley powdery mildew (EGP); format: in vivo; settings: direct protectant foliar spray, 8 days
Summary of the method: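 Barley seedlings (cv Golden Promise, single-leaf stage) were foliar-sprayed, held 24 h at 18 °C/40% RH, then dusted with mildew conidia. After 8 days at 18 °C/40% RH, sporulating leaf area was scored as a rating against untreated or diluent-sprayed controls.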

Botrytis cinerea = experiment: Direct protectant activity against broad bean grey mould (BCB); format: in vivo; settings: direct protectant foliar spray, 600 ppm, 4 days
Summary of the method: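 Broad bean plants (cv The Sutton, two leaf pairs) sprayed on upper leaf surfaces at 600 ppm, then inoculated 24 h later with 10^6 conidia/ml. Kept 4 days at 22 °C, high humidity; disease control rated from % leaf area with lesions against untreated or diluent controls.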

[2] = system: Erysiphe graminis f.sp. hordei; experiment: Activity against barley powdery mildew, direct therapeutic (EGT); format: in vivo; settings: direct therapeutic foliar spray, 600 ppm, up to 7 days
Summary of the method: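 Barley seedlings (cv. Golden Promise, single-leaf stage) were dusted with mildew conidia one day before a therapeutic foliar spray of 600 ppm compound. Plants were kept at 18 °C and 40% humidity for up to 7 days, and sporulating leaf area was rated against untreated or diluent-sprayed controls.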

Leptosphaeria nodorum = experiment: Activity against wheat leafspot (LN); format: in vivo; settings: direct therapeutic foliar spray, 600 ppm, 6-8 days
Summary of the method: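 Wheat cv Norman at single-leaf stage spray-inoculated with 1.5×10^6 conidia/ml, held 24 h at high humidity, then sprayed therapeutically with test compound at 600 ppm. Kept 6-8 days at 22° C, 70% humidity; lesion density per leaf rated against untreated or diluent-sprayed controls.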

Alternaria solani = experiment: Activity against tomato early blight (AS); format: in vivo; settings: Table VI; tomato seedlings, contact prophylactic foliar spray, 4 days
Summary of the method: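 Foliar contact prophylactic spray on tomato seedlings (cv Outdoor Girl, second true leaf expanded) in acetone/water 50:50 with 0.04% Tween 20; 24 h at 20° C, 40% R.H., then inoculation with 10^4 spores/ml A. solani conidia. Kept moist at 21° C; lesion cover rated 4 days post-inoculation against untreated or diluent-sprayed controls.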

[3] = system: Pseudocercosporella herpotrichoides; experiment: Activity against wheat eyespot in-vitro (PHI); format: cell-based; settings: 10 ppm, 10 days, 20° C., mycelial growth
Summary of the method: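 P. herpotrichoides mycelial fragments (5×10^4/ml) grown in half-strength PDB with compound at 10 ppm final, added from acetone. Incubated 10 days at 20 °C; mycelial growth rated against untreated or diluent controls.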

Rhizoctonia solani = experiment: Activity against Rhizoctonia in-vitro (RSI); format: cell-based; settings: 10 ppm, 10 days, 20° C., mycelial growth
Summary of the method: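 R. solani mycelial fragments (5×10^4/ml) in half-strength Potato Dextrose Broth with compound added from acetone to 10 ppm final. Mycelial growth assessed after 10 days at 20° C, rated against untreated or diluent control.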

SMILES: CC(C)(C)C1CCC2(CC1)CC(Nc1ccc(Cl)cc1)CO2 (stereo not drawn) [Compound 23]
- disease control rating PO (Pyricularia oryzae): 0 (less than 50% disease control)
- disease control rating PIP (Phytophthora infestans): 0 (less than 50% disease control)
- disease control rating VII (Venturia inaequalis): 2 (greater than 80% disease control)
- disease control rating PVA (Plasmopara viticola): 0 (less than 50% disease control)
- disease control rating EGP [1]: 0 (less than 50% disease control)
- disease control rating BCB (Botrytis cinerea): 0 (less than 50% disease control)
- disease control rating EGT [2]: 0 (less than 50% disease control)
- disease control rating LN (Leptosphaeria nodorum): 0 (less than 50% disease control)
- disease control rating AS (Alternaria solani): 0 (less than 50% disease control)
- disease control rating PHI [3]: 0 (less than 50% disease control)
- disease control rating RSI (Rhizoctonia solani): 0 (less than 50% disease control)

SMILES: CCCCCCCNC1COC2(CCC(C(C)(C)C)CC2)C1 (stereo not drawn) [Compound 5]
- disease control rating PO (Pyricularia oryzae): 0 (less than 50% disease control)
- disease control rating PIP (Phytophthora infestans): 0 (less than 50% disease control)
- disease control rating VII (Venturia inaequalis): 0 (less than 50% disease control)
- disease control rating PVA (Plasmopara viticola): 0 (less than 50% disease control)
- disease control rating EGP [1]: 2 (greater than 80% disease control)
- disease control rating BCB (Botrytis cinerea): 1 (about 50-80% disease control)
- disease control rating EGT [2]: 2 (greater than 80% disease control)
- disease control rating LN (Leptosphaeria nodorum): 0 (less than 50% disease control)
- disease control rating AS (Alternaria solani): 0 (less than 50% disease control)
- disease control rating PHI [3]: 0 (less than 50% disease control)
- disease control rating RSI (Rhizoctonia solani): 1 (about 50-80% disease control)

SMILES: CCCCCC(C)NC1COC2(CCC(C(C)(C)C)CC2)C1 (stereo not drawn) [Compound 101]
- disease control rating PO (Pyricularia oryzae): 0 (less than 50% disease control)
- disease control rating PIP (Phytophthora infestans): 0 (less than 50% disease control)
- disease control rating VII (Venturia inaequalis): 2 (greater than 80% disease control)
- disease control rating PVA (Plasmopara viticola): 0 (less than 50% disease control)
- disease control rating EGP [1]: 2 (greater than 80% disease control)
- disease control rating BCB (Botrytis cinerea): 2 (greater than 80% disease control)
- disease control rating EGT [2]: 2 (greater than 80% disease control)
- disease control rating LN (Leptosphaeria nodorum): 0 (less than 50% disease control)
- disease control rating AS (Alternaria solani): 0 (less than 50% disease control)
- disease control rating PHI [3]: 1 (about 50-80% disease control)
- disease control rating RSI (Rhizoctonia solani): 0 (less than 50% disease control)

SMILES: CCC(C)(C)C1CCC2(CC1)CC(N1CC(C)OC(C)C1)CO2 (stereo not drawn) [Compound 53]
- disease control rating PO (Pyricularia oryzae): 0 (less than 50% disease control)
- disease control rating PIP (Phytophthora infestans): 0 (less than 50% disease control)
- disease control rating VII (Venturia inaequalis): 1 (about 50-80% disease control)
- disease control rating PVA (Plasmopara viticola): 0 (less than 50% disease control)
- disease control rating EGP [1]: 2 (greater than 80% disease control)
- disease control rating BCB (Botrytis cinerea): 1 (about 50-80% disease control)
- disease control rating EGT [2]: 2 (greater than 80% disease control)
- disease control rating LN (Leptosphaeria nodorum): 0 (less than 50% disease control)
- disease control rating AS (Alternaria solani): 0 (less than 50% disease control)
- disease control rating PHI [3]: 1 (about 50-80% disease control)
- disease control rating RSI (Rhizoctonia solani): 0 (less than 50% disease control)

SMILES: CC(C)(C)C1CCC2(CC1)CC(NC1CCC3CCCCC3C1)CO2 (stereo not drawn) [Compound 98]
- disease control rating PO (Pyricularia oryzae): 0 (less than 50% disease control)
- disease control rating PIP (Phytophthora infestans): 2 (greater than 80% disease control)
- disease control rating VII (Venturia inaequalis): 2 (greater than 80% disease control)
- disease control rating PVA (Plasmopara viticola): 0 (less than 50% disease control)
- disease control rating EGP [1]: 2 (greater than 80% disease control)
- disease control rating BCB (Botrytis cinerea): 2 (greater than 80% disease control)
- disease control rating EGT [2]: 2 (greater than 80% disease control)
- disease control rating LN (Leptosphaeria nodorum): 0 (less than 50% disease control)
- disease control rating AS (Alternaria solani): 0 (less than 50% disease control)
- disease control rating PHI [3]: 0 (less than 50% disease control)
- disease control rating RSI (Rhizoctonia solani): 1 (about 50-80% disease control)

SMILES: CC1CCN(C2COC3(CCC(C(C)(C)C4CCCCC4)CC3)C2)CC1 (stereo not drawn) [Compound 141]
- disease control rating PO (Pyricularia oryzae): 0 (less than 50% disease control)
- disease control rating PIP (Phytophthora infestans): 0 (less than 50% disease control)
- disease control rating VII (Venturia inaequalis): 2 (greater than 80% disease control)
- disease control rating PVA (Plasmopara viticola): 0 (less than 50% disease control)
- disease control rating EGP [1]: 2 (greater than 80% disease control)
- disease control rating BCB (Botrytis cinerea): 0 (less than 50% disease control)
- disease control rating EGT [2]: 2 (greater than 80% disease control)
- disease control rating LN (Leptosphaeria nodorum): 1 (about 50-80% disease control)
- disease control rating AS (Alternaria solani): 0 (less than 50% disease control)
- disease control rating PHI [3]: 2 (greater than 80% disease control)
- disease control rating RSI (Rhizoctonia solani): 2 (greater than 80% disease control)

SMILES: Clc1ccc(CNC2COC3(CCCCC3)C2)cc1 (stereo not drawn) [Compound 34]
- disease control rating PO (Pyricularia oryzae): 0 (less than 50% disease control)
- disease control rating PIP (Phytophthora infestans): 0 (less than 50% disease control)
- disease control rating VII (Venturia inaequalis): 0 (less than 50% disease control)
- disease control rating PVA (Plasmopara viticola): 0 (less than 50% disease control)
- disease control rating EGP [1]: 2 (greater than 80% disease control)
- disease control rating BCB (Botrytis cinerea): 0 (less than 50% disease control)
- disease control rating EGT [2]: 2 (greater than 80% disease control)
- disease control rating LN (Leptosphaeria nodorum): 0 (less than 50% disease control)
- disease control rating AS (Alternaria solani): 0 (less than 50% disease control)
- disease control rating PHI [3]: 0 (less than 50% disease control)
- disease control rating RSI (Rhizoctonia solani): 0 (less than 50% disease control)

SMILES: CC(C)(C)C1CCC2(CC1)CC(NC1CC1)CO2 (stereo not drawn) [Compound 71]
- disease control rating PO (Pyricularia oryzae): 0 (less than 50% disease control)
- disease control rating PIP (Phytophthora infestans): 2 (greater than 80% disease control)
- disease control rating VII (Venturia inaequalis): 1 (about 50-80% disease control)
- disease control rating PVA (Plasmopara viticola): 0 (less than 50% disease control)
- disease control rating EGP [1]: 2 (greater than 80% disease control)
- disease control rating BCB (Botrytis cinerea): 0 (less than 50% disease control)
- disease control rating EGT [2]: 2 (greater than 80% disease control)
- disease control rating LN (Leptosphaeria nodorum): 1 (about 50-80% disease control)
- disease control rating AS (Alternaria solani): 0 (less than 50% disease control)
- disease control rating PHI [3]: 0 (less than 50% disease control)
- disease control rating RSI (Rhizoctonia solani): 0 (less than 50% disease control)

SMILES: CCCCCNC1COC2(CCC(C(C)(C)CC)CC2)C1 (stereo not drawn) [Compound 49]
- disease control rating PO (Pyricularia oryzae): 0 (less than 50% disease control)
- disease control rating PIP (Phytophthora infestans): 2 (greater than 80% disease control)
- disease control rating VII (Venturia inaequalis): 1 (about 50-80% disease control)
- disease control rating PVA (Plasmopara viticola): 0 (less than 50% disease control)
- disease control rating EGP [1]: 2 (greater than 80% disease control)
- disease control rating BCB (Botrytis cinerea): 0 (less than 50% disease control)
- disease control rating EGT [2]: 2 (greater than 80% disease control)
- disease control rating LN (Leptosphaeria nodorum): 2 (greater than 80% disease control)
- disease control rating AS (Alternaria solani): 0 (less than 50% disease control)
- disease control rating PHI [3]: 2 (greater than 80% disease control)
- disease control rating RSI (Rhizoctonia solani): 1 (about 50-80% disease control)

From patent publication US5591741A, “Fungicidal spiroheterocyclic derivatives” (American Cyanamid Company, priority 1993, dated 1997)
